Measured values from patent US20110053969A1, “NOVEL DIAZASIPIROAKANES AND THEIR USE FOR TREATMENT OF CCR8 MEDIATED DISEASES” (ASTRAZENECA AB, priority 2005, published 2011).
Where a name gives a salt, the structure may show the parent alone.

Assays:
[1] = target: T1, human recombinant chemokine CCR8 receptor (Homo sapiens, UniProt P51685); test: CCL1 SPA binding assay; details: inhibition of 125I CCL1 binding to membranes from CHO-K1 cells transfected with human CCR8
T1 construct: purchased Euroscreen ES-136-M; host or cells: CHO-K1 cells (transfected), membrane preparation
Protocol: Membranes from CHO-K1 cells transfected with human recombinant chemokine CCR8 receptor (ES-136-M) were purchased from Euroscreen. Membrane preparations are stored at −70 C in 7.5 mM Tris-Cl pH 7.5, 12.5 mM MgCl2, 0.3 mM EDTA, 1 mM EGTA, 250 mM sucrose until used.
The CCR8 membranes (50.6 mg/ml) were preincubated with Wheat Germ Agglutinin SPA beads (4.05 mg/ml) in assay buffer (50 mM HEPES, 1 mM CaCl2x2H2O, 5 mM MgCl2x6H2O, 75 mM NaCl, 0.1% BSA) at pH=7.4 for 2 hours on ice. A 10-point dose-response curve (final concentrations 50 μM, 16.7 μM, 5.6 μM, 1.9 μM, 0.62 μM, 0.21 μM, 0.069 μM, 0.023 μM) was prepared by diluting compounds by serial dilution 1:3 in DMSO. In the screening plate (Polystyrene NBS plates, Costar Corning 3604) 1 μl from the DMSO solutions of compounds was transferred into each well. 1 μl of DMSO was added to the blank control wells and 1 μl unlabeled CCL1 (300 nM) was added to background control wells. 50 μl of the SPA bead-membrane mixture was added into each well. Finally, 50 μl. ([…]) ^125I CCL1 (2000 Ci/mM) was added to each well. Plates were then incubated at RT with shaking (700 rpm) for 90 minutes followed by 30 minutes at RT without shaking. The plate was read in a Wallac MicroBeta counter for 2 minutes/well.

[2] = Human microsomal stability assay; format: in vitro ADME; details: human microsomes (Xenotech), 1 mg microsomal protein/mL, 2.5 μM compound, 2 mM NADPH, pH 7.4, 37° C., read-out: Human Microsomal Stability (intrinsic Clearance, CLint)
Protocol: Human Microsomal Stability Assay
The assay is run in a 96-deepwell format at 1 mg microsomal protein (Xenotech)/mL in potassium phosphate buffer (pH 7.4) with a compound concentration of 2.5 μM and a NADPH concentration of 2 mM. Samples at four time-points (0, 5, 15 and 30 minutes) are withdrawn and the enzymatic reaction is terminated by protein precipitation with 1% acetic acid in acetonitrile. The incubations are performed on a thermostated plate (37° C.) placed on a Tecan worktable, and all liquid handling was performed robotically. After centrifugation of the samples, the supernatants are pooled in sets of four before they are analysed by liquid chromatography with tandem mass spectrometry detection (LC/MS/MS) using multiple reaction monitoring (MRM). Data are presented as intrinsic Clearance (CLint), μl/min/mg protein, calculated from the initial linear part of the compound disappearance curve.

T1 sequence (P51685 whole entry): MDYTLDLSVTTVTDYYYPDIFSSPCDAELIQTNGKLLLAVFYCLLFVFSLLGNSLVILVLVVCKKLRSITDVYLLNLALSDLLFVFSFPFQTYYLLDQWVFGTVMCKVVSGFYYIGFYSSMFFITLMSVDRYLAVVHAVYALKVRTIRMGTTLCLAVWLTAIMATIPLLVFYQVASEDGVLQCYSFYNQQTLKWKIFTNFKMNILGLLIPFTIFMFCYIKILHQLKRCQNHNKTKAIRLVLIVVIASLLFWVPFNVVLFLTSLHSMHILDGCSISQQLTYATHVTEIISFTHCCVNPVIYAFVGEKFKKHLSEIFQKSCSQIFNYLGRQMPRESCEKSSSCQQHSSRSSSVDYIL

Row | Compound | IC50 [1] | microsomal CLint at 2.5 μM [2]
1 | CC(C)COc1ccccc1CN1CCC2(CC1)CCN(C(=O)c1ccc[nH]c1=O)CC2 [A, 3-{[9-(2-isobutoxybenzyl)-3,9-diazaspiro[5.5]undec-3-yl]carbonyl}pyridin-2(1H)-one, reference compound] | 1950 nM | 
2 | CC(C)COc1ccccc1CN1CCC2(CC1)CCN(C(=O)c1ccc(=O)[nH]c1)CC2 [B, 5-{[9-(2-isobutoxybenzyl)-3,9-diazaspiro[5.5]undec-3-yl]carbonyl}pyridin-2(1H)-one, reference compound] | 1900 nM | 
3 | COc1ccccc1Oc1ccccc1CN1CCC2(CC1)CCN(C(=O)c1ccc[nH]c1=O)CC2 [Example 2, 3-({9-[2-(2-methoxyphenoxy)benzyl]-3,9-diazaspiro[5.5]undec-3-yl}carbonyl)pyridin-2(1H)-one] | 62 nM | < 10 µL/min/mg

Other lines, results leading:

Row | IC50 [1] | microsomal CLint at 2.5 μM [2] | Compound
4 | 83 nM | < 10 µL/min/mg | COc1ccccc1Oc1ccccc1CN1CCC2(CC1)CCN(C(=O)c1ccc(=O)[nH]c1C(F)(F)F)CC2 [Example 3, 5-({9-[2-(2-methoxyphenoxy)benzyl]-3,9-diazaspiro[5.5]undec-3-yl}carbonyl)-6-(trifluoromethyl)pyridin-2(1H)-one trifluoroacetate]
5 | 15 nM | 21.7 µL/min/mg | COc1ccccc1Oc1cccc(CN2CCC3(CC2)CCN(C(=O)c2ccc[nH]c2=O)CC3)c1 [Example 4, 3-({9-[3-(2-methoxyphenoxy)benzyl]-3,9-diazaspiro[5.5]undec-3-yl}carbonyl)pyridin-2(1H)-one]
